Assay results: patent publication US20220204491A1, “FXR (NR1H4) MODULATING COMPOUNDS” (Gilead Sciences, Inc., priority 2019, published 2022)
pEC50: −log10 of the molar value.

The molecules below were run against T1, FXR ligand binding domain (Homo sapiens, UniProt Q96RI1) (assay: Mammalian one hybrid (M1H) Gal4 reporter assay in HEK293 cells). Details: Gal4-FXR-LBD luciferase reporter, 16 hours.
T1 construct: expressed in transfected cells; host or cells: HEK293 (DSMZ), transient transfection of pCMV-BD-FXR-LBD, pFR-Luc and pRL-CMV
T1 sequence (Q96RI1 187-472 isoform Q96RI1-2): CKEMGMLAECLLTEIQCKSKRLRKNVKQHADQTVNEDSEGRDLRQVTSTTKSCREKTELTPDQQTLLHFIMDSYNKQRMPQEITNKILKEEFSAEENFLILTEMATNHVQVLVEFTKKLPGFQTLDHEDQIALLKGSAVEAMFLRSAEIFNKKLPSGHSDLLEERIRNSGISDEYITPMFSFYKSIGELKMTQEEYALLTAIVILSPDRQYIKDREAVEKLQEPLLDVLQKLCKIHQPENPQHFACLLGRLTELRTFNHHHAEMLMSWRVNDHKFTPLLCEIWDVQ
Assay type: cell-based
Description: Determination of a ligand mediated Gal4 promoter driven transactivation to quantify ligand binding mediated activation of FXR was performed as follows.
The cDNA part encoding the FXR ligand binding domain was cloned into vector pCMV-BD (Stratagene) as a fusion to the yeast GAL4 DNA binding domain under the control of the CMV promoter. The amino acid boundaries of the ligand binding domain were amino acids 187-472 of Database entry NM_005123 (RefSeq). The plasmid pFR-Luc (Stratagene) was used as the reporter plasmid, containing a synthetic promoter with five tandem repeats of the yeast GAL4 binding sites, driving the expression of the Photinus pyralis (American firefly) luciferase gene as the reporter gene. In order to improve experimental accuracy the plasmid pRL-CMV (Promega) was cotransfected. pRL-CMV contains the constitutive CMV promoter, controlling the expression of the Renilla reniformis luciferase. All Gal4 reporter gene assays were done in HEK293 cells (obtained from DSMZ, Braunschweig, Germany) grown in MEM with L-Glutamine and Earle's BSS supplemented with 10% fetal bovine serum, 0.1 mM nonessential amino acids, 1 mM sodium pyruvate, and 100 units Penicillin/[…] per mL at about 37° C. in 5% CO2. Medium and supplements were obtained from Invitrogen. For the assay, 5×10^5 cells were plated per well in 96 well plates in 100 μl per well MEM without Phenol Red and L-Glutamine and with Earle's BSS supplemented with 10% charcoal/dextran treated FBS (HyClone, South Logan, Utah), 0.1 mM nonessential amino acids, 2 mM glutamine, 1 mM sodium pyruvate, and 100 units Penicillin/[…] per mL, incubated at about 37° C. in 5% CO2. The following day the cells were >90% confluence. […] Cells were incubated for additional 16 hours before firefly and renilla luciferase activities were measured sequentially in the same cell extract using a Dual-Light-Luciferase-Assay system (Dyer et al., Anal. Biochem. 2000, 282, 158-161). […]

pEC50	SMILES
8.92	O=C(O)c1cnc(N2CC(O)(c3ccc(OCc4c(-c5c(Cl)cc(F)cc5Cl)noc4C4CC4)cc3Cl)C2)c(F)c1 [Comparative Example 1, 6-(3-(2-chloro-4-((5-cyclopropyl-3-(2,6-dichloro-4-fluorophenyl)isoxazol-4-yl)methoxy)phenyl)-3-hydroxyazetidin-1-yl)-5-fluoronicotinic acid]
8.70	O=C(O)c1ccc(N2CC(O)(c3ccc(OCc4c(-c5c(Cl)cccc5Cl)noc4C4CC4)cc3Cl)C2)nc1 [Comparative Example 2]
8.26	O=C(O)c1ccc(N2CC(O)(c3ccc(OCc4c(-c5c(Cl)cc(F)cc5Cl)noc4C4CC4)cc3Cl)C2)nc1 [Example 1, 6-(3-(2-chloro-4-((5-cyclopropyl-3-(2,6-dichloro-4-fluorophenyl)isoxazol-4-yl)methoxy)phenyl)-3-hydroxyazetidin-1-yl)nicotinic acid]
